Data as given in patent US20240287463A1, “INDUCIBLE TISSUE CONSTRUCTS AND USES THEREOF” (Massachusetts Institute of Technology, priority 2020, published 2024).

Experiments:
[1] = system: unmodified J2s; experiment: CID exposure of MPCCs plated with unmodified fibroblasts; type: cell-based; settings: data not shown
From the text: (§1) Specifically, MPCC were fabricated as described previously (S. R. Khetani and S. N. Bhatia (2005) Nat. Biotechnol 26, 120; S. March et al. (2015) Nat. Protoc. 10, 2007). Briefly, collagen was adsorbed in each well of a 96 well plate (glass bottom), and then patterned using an elastomeric polydimethysiloxane mold and oxygen plasma gas ablation. Human hepatocytes were thawed and seeded (70 k/well) on the collagen islands (500 μm with 1,200 μm center-to-center spacing). Adhered hepatocytes (˜10 k/well) were allowed to spread overnight before fibroblasts were seeded for co-culture (7 k/well). Supernatant was collected from cultures every other day and stored at −20° C. Human albumin was quantified using an enzyme-linked immunosorbent assay using a sheep anti-rat albumin antibody (ELISA) (Bethyl Laboratories) and 3,3′,5,5′-tetramethylbenzidine (TMB, Thermo Fisher). Urea concentration was measured using a colorimetric (diacetylmonoxime) assay with acid and heat (Stanbio Labs). CYP3A4 activity was assessed with the luminogenic P450-GloTM CYP450 assay kit (Promega) for nonlytic assays using cultured cells. Cultures were pre-treated with 2 μM rifampin or 1:1,000 DMSO vehicle control prepared in hepatocyte maintenance media for 72 hours (daily replenishment) where indicated. […]

[2] = system: primary human hepatocytes; experiment: hepatocyte albumin and urea in tri-culture microfluidic devices; type: cell-based; settings: 50 nM CID after 5 days of tri-culture
From the text: (§2) Specifically, MPCC were fabricated as described previously (S. R. Khetani and S. N. Bhatia (2005) Nat. Biotechnol 26, 120; S. March et al. (2015) Nat. Protoc. 10, 2007). Briefly, collagen was adsorbed in each well of a 96 well plate (glass bottom), and then patterned using an elastomeric polydimethysiloxane mold and oxygen plasma gas ablation. Human hepatocytes were thawed and seeded (70 k/well) on the collagen islands (500 μm with 1,200 μm center-to-center spacing). Adhered hepatocytes (˜10 k/well) were allowed to spread overnight before fibroblasts were seeded for co-culture (7 k/well). Supernatant was collected from cultures every other day and stored at −20° C. Human albumin was quantified using an enzyme-linked immunosorbent assay using a sheep anti-rat albumin antibody (ELISA) (Bethyl Laboratories) and 3,3′,5,5′-tetramethylbenzidine (TMB, Thermo Fisher). Urea concentration was measured using a colorimetric (diacetylmonoxime) assay with acid and heat (Stanbio Labs). CYP3A4 activity was assessed with the luminogenic P450-GloTM CYP450 assay kit (Promega) for nonlytic assays using cultured cells. Cultures were pre-treated with 2 μM rifampin or 1:1,000 DMSO vehicle control prepared in hepatocyte maintenance media for 72 hours (daily replenishment) where indicated.
Given that fibroblasts are only transiently required for supporting the formation of a functional vasculature, it was investigated whether CAMEO could be used in the vascularization of tissue constructs with organ-specific parenchymal cells without negatively affecting the function of the parenchymal cells. To investigate this, a tri-culture system of HUVECs, iCasp9-HDFs, and primary human hepatocytes was employed in the microfluidic device. […] To evaluate whether the hepatocytes remained functional after CID treatment, levels of albumin and urea, markers for hepatic protein synthesis function and nitrogen metabolism, respectively, were measured in the media.

[3] = system: implanted hepatocyte tissue constructs; experiment: human albumin in plasma of mice implanted with hepatocyte/iCasp9-HDF/HUVEC constructs (ELISA); type: in vivo; settings: 10 mg/kg on days 5 and 6 post-implantation, plasma at day 7
Description: Following the confirmation of vessel maintenance and anastomosis and ability to induce death of implanted fibroblasts in vivo, hepatocyte function was evaluated in implanted hepatocyte tissue constructs. Specifically, mice were implanted with hepatocyte/iCasp9-HDF/HUVEC tissue constructs after in vitro culture for 7 days. Constructs were implanted in mouse fat pads as described above, and treated with 10 mg/kg CID or vehicle on days 5 and 6 post-implantation. At day 7, blood was collected and centrifuged to isolate plasma.

[4] = system: iCasp9-HLF; experiment: HUVEC/iCasp9-HLF tissue constructs implanted in mouse fat pad; type: in vivo, mice; settings: 10 mg/kg intraperitoneally on days 5, 7, 9
Description: The ability to successfully transplant the described tissue constructs was assessed in mice. Specifically, engineered tissue constructs consisting of HUVECs and iCasp9-human lung fibroblasts (iCasp9-HLF, see Example 7) were cultured for 7 days in vitro. Constructs were then implanted into the intraperitoneal mesenteric parametrial fat pad of mice. Five days after implantation, mice were injected with 10 mg/kg CID or vehicle intraperitoneally. Mice were dosed again on days 7 and 9. Constructs were collected from mice on day 10 post-implantation. Explants were cryosectioned and imaged to visualize the presence of cells.

[5] = system: primary human hepatocytes; experiment: hepatocyte function and toxicity in 3D spheroid-laden hydrogels after fibroblast deletion; type: cell-based
From the text: as §2
Previous work identified that phenotypic stability and longevity of primary hepatocytes cultured as 3D microtissues were transiently supported by pre-aggregation to increase homotypic cell-cell interactions, and were further enhanced upon inclusion of J2 fibroblasts (C. Y. Li et al. (2014) Tissue Eng. Part A 20, 2200). Thus, iCasp9-GFP J2 fibroblasts were incorporated into these 3D hepatic ensembles, which were fabricated by plating primary human hepatocytes and fibroblasts in microwells in order to facilitate physical cell-cell contacts, as previously described (K. Stevens et al. (2013) Nat. Commun. 4, 1847; K. R. Stevens et al. (2017) Sci. Transl. Med. 9, eaaah5505). Specifically, cryopreserved 365 human hepatocytes were thawed and immediately plated with fibroblasts in AggreWells (400 μm pyramidal microwells) and incubated overnight. Hepatic spheroids (about 150 hepatocytes per spheroid, ˜100 μm diameter) were imaged and analyzed to quantify the extent of spheroid compaction. Individual spheroids were isolated manually using Fiji, (J. Schindelin et al. (2012) Nat. Methods 9, 676). […] Resulting morphologies were traced and measured for circularity. […]
To probe the dependence of hepatocyte phenotypic stability on fibroblast co-culture in 3D, fibroblasts were deleted from spheroid-laden hydrogel cultures using CAMEO after 1 day of hepatocyte-fibroblast co-culture. Fibroblasts were robustly removed from 3D co-cultures as described in the above Examples, and detected by immunofluorescence imaging (FIG. 3I). […]

[6] = system: primary human hepatocytes; experiment: hepatocyte phenotypic stability (albumin production) in MPCC after fibroblast deletion; type: cell-based; settings: CID at day 1, day 3 or day 7 of 2D MPCC
From the text: as §1, with “cells.” for “cells. Cultures were pre-treated with 2 μM rifampin or 1:1,000 DMSO vehicle control prepared in hepatocyte maintenance media for 72 hours (daily replenishment) where indicated.”
To query the dependence of hepatocytes on fibroblasts, fibroblasts were deleted from MPCCs by CID treatment at various time points and albumin production was assessed as a surrogate marker of phenotypic stability.

[7] = system: iCasp9-GFP J2 population; experiment: fibroblast removal from 2D micropatterned co-cultures (MPCC); type: cell-based; settings: 50 nM CID
From the text: as §1

## CC[C@H](C(=O)N1CCCC[C@H]1C(=O)O[C@H](CCc1ccc(OC)c(OC)c1)c1cccc(OCC(=O)NCC(CNC(=O)COc2cccc([C@@H](CCc3ccc(OC)c(OC)c3)OC(=O)[C@@H]3CCCCN3C(=O)[C@@H](CC)c3cc(OC)c(OC)c(OC)c3)c2)CN(C)C)c1)c1cc(OC)c(OC)c(OC)c1 [CID, AP20187]
[1]
  effect of CID exposure on unmodified J2s in MPCCs: unaffected
[2]
  secretive functions of the hepatocytes: did not negatively affect
[2]; day 7
  secreted albumin versus vehicle control: statistically higher level
  secreted urea versus vehicle control: statistically higher level
[3]
  human albumin secretion compared to vehicle control and in vitro CID treated constructs: similar
[4]; collected day 10
  integration of engineered vessels with host vessels (anti-TER119): demonstrated vessel integration
[4]; collected day 10 post-implantation
  iCasp9-HLF in explants compared to vehicle treated mice: reduction
[5]; 50 nM CID after 3 or 7 days of co-culture
  hepatocyte function: negatively impacted
[5]; CID after 1 day of co-culture, followed up to 3 weeks
  hepatocyte phenotype by albumin secretion rate: stable phenotype
[5]; data not shown
  hepatocyte function, CID pre- versus post-encapsulation in fibrin: No difference
[5]; spheroid-laden hydrogel cultures, data not shown
  toxicity to co-cultured hepatocytes: without any apparent toxicity
[6]
  hepatocyte phenotypic stability (albumin production): loss of hepatocyte phenotypic stability
[7]
  removal of fibroblasts from MPCC: selective removal of the iCasp9-GFP J2 population
